{
  "source": "patent US20020142942A1",
  "about": "“Method for treating premenstrual or late luteal phase syndrome” (Merck & Co. Inc., priority 1997, published 2002)",
  "key": {"[1]": {"system": "foot tapping in gerbils induced by central injection of an NK1 agonist", "test": "Gerbil foot-tapping assay", "type": "in vivo, Mongolian gerbils", "conditions": "i.v.", "description": "Gerbil Foot-Tapping Assay CNS penetrant NK-1 receptor antagonists for use in the present invention can be identified by their ability to inhibit foot tapping in gerbils induced by anxiogenic agents (such as pentagastrin) or central infusion of NK-1 receptor agonists such as GR73632, or caused by aversive stimulation such as foot shock or single housing, based on the method of Rupniak & Williams, Eur. J. Pharmacol., 1994, 265, 179. Male or female Mongolian gerbils (35-70 g) are anaesthetised by inhalation of an isoflurane/oxygen mixture to permit exposure of the jugular vein in order to permit administration of test compounds or vehicle in an injection volume of 5 ml/kg i.v. Alternatively, test compounds may be administered orally or by subcutaneous or intraperitoneal routes. The wound is closed and a second skin incision is made in the midline of the scalp to expose the skull. […] The duration and/or intensity of hind foot tapping is then recorded continuously for 5 minutes. Alternatively, the ability of test compounds to inhibit foot tapping evoked by aversive stimulation, such as foot shock or single housing, may be studied using a similar method of quantification."}, "[2]": {"system": "cisplatin-induced emesis in ferrets", "test": "Ferret emesis assay", "type": "in vivo", "conditions": "p.o.", "method": "Ferret Emesis Assay Individually housed male ferrets (1.0-2.5 kg) are dosed orally by gavage with test compound. Ten minutes later they are fed with approximately 100 g of tinned cat food. At 60 minutes following oral dosing, cisplatin (10 mg(kg) is given i.v. via a jugular vein catheter inserted under a brief period of halothane anaesthesia. The catheter is then removed, the jugular vein ligated and the skin incision closed. The ferrets recover rapidly from the anaesthetic and are mobile within 10-20 minutes. The animals are observed continuously during recovery from the anaesthetic and for 4 hours following the cisplatin injection, after which time the animals are killed humanely. The numbers of retches and vomits occurring during the 4 hours after cisplatin administration are recorded by trained observers."}, "[3]": {"system": "distress vocalisations in guinea-pig pups", "test": "Separation-induced vocalisation assay", "type": "in vivo, guinea-pigs", "conditions": "p.o.", "description": "Separation-Induced Vocalisation Assay Male and female guinea-pigs pups are housed in family groups with their mothers and littermates throughout the study. Experiments are commenced […] when the pups are 2 weeks old. Before entering an experiment, the pups are screened to ensure that a vigorous vocalisation response is reproducibly elicited following maternal separation. The pups are placed individually in an observation cage (55 cm×39 cm×19 cm) in a room physically isolated from the home cage for 15 minutes and the duration of vocalisation during this baseline period is recorded. Only animals which vocalise for longer than 5 minutes are employed for drug challenge studies (approximately 50% of available pups may fail to reach this criterion). On test days each pup receives an oral dose or a s.c. or i.p. injection of test compound or vehicle and is then immediately returned to the home cage with its mother and siblings for 30 minutes to 60 minutes (or for up to 4 hours following an oral dose, dependant upon the oral pharmacokinetics of the test compound) before social isolation for 15 minutes as described above. The duration of vocalisation on drug treatment days is expressed as a percentage of the pre-treatment baseline value for each animal. The same subjects are retested once weekly for up to 6 weeks. Between 6 and 8 animals receive each test compound at each dose tested. […]"}, "[4]": {"system": "women with premenstrual syndrome", "test": "Double-blind, placebo-controlled study of mood and appetite disturbances associated with premenstrual syndrome", "type": "in vivo", "conditions": "30 mg/day, compared with placebo, Hamilton Depression Scale and PMS/LLPD Symptom Rating Scale", "method": "Double-Blind, Placebo-Controlled Study to Determine the Effect of a Substance P Antagonist on Mood and Appetite Disturbances Associated with Premenstrual Syndrome in Women.\nApproximately twenty women receive either the substance P receptor antagonist 2-(R)-(1-(R)-(3,5-bis(trifluoromethyl)phenyl)ethoxy)-3-(S)-(4-fluorophenyl)-4-(3-(5-oxo-1H,4H-1,2,4-triazolo)methyl-morpholine (30 mg/day) or a placebo starting approximately two weeks prior to their expected menstrual period. Each subject participates in 6 randomized test periods; in 3 of the test periods, each is given the substance P antagonist and in the other 3 test periods, is given a placebo. Mood is assessed 1-3 days before the onset of menses, using the Hamilton Depression Scale and the PMS/LLPD Symptom Rating Scale, for mood and appetite symptoms. Hamilton, N., Journal of Neurosurgery and Psychiatry, 23:56-62 (1960); Steiner, M. et al., Acta Psychiatrica Scandinavia, 62:177-190 (1980). Food intake is measured through the use of self-reports (when subjects were out-patients), and directly (while subjects were inpatients), during one drug and one placebo period; subjects also are weighed. The results between the test periods are compared and the results for each subject are evaluated."}},
  "data": [
    {"compound": "C[C@@H](O[C@H]1OCCN(Cc2n[nH]c(=O)[nH]2)[C@H]1c1ccc(F)cc1)c1cc(C(F)(F)F)cc(C(F)(F)F)c1", "note": "[2-(R)-(1-(R)-(3,5-bis(trifluoromethyl)-phenyl)-ethoxy)-3-(S)-(4-fluorophenyl)-4-(3-(5-oxo-1H,4H-1,2,4-triazolo)methyl)-morpholine]", "values": [
      {"measurement": "gerbil foot-tapping (5 mins.): IC50", "setting": "[1]; 5 mins.", "result": "IC50 = 0.36 mg/kg i.v."},
      {"measurement": "gerbil foot-tapping (24 hrs.): IC50", "setting": "[1]; 24 hrs.", "result": "IC50 = 0.33 mg/kg i.v."},
      {"measurement": "ferret emesis: ID90", "setting": "[2]", "result": "ID90 = <3 mg/kg p.o."},
      {"measurement": "guinea-pig vocalisation (4 hr. pre-treatment): ID50", "setting": "[3]", "result": "ID50 = 0.73 mg/kg p.o."},
      {"measurement": "effect in decreasing depression and other negative mood states", "setting": "[4]", "result": "positive effect with respect to placebo"}
    ]}
  ]
}
